Consider 15 molecules from patent US20080182851A1, “ACETYLENE DERIVATIVES AS STEAROYL COA DESATURASE INHIBITORS” (Glenmark Pharmaceuticals S.A., priority 2006, published 2008).

The target in the test is T1, human SCD1 enzyme (Homo sapiens, UniProt O00767).
T1 sequence (O00767 1-359): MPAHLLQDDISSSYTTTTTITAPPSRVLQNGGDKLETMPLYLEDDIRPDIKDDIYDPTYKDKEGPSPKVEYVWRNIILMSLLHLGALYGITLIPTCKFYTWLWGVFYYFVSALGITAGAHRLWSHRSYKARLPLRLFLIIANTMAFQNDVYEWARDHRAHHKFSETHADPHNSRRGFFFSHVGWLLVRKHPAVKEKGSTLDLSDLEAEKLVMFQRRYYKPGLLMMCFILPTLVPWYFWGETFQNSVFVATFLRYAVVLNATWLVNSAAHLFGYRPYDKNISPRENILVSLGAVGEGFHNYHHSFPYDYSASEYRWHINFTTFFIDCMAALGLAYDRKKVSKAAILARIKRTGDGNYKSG
Description: Tritiated water release assay (conversion of radiolabeled stearoyl-CoA to oleoyl-CoA). Type of test: biochemical. Conditions: 10 μM concentration of test compounds; microsomal SCD1, 3H stearoyl CoA, 37° C. 30 minutes; percent of control reaction; read-out: % Inhibition. How it is done:
The in-vitro activity of the compounds of the present invention against stearoyl coenzyme desaturase was determined by following conversion of radiolabeled-stearoyl-CoA to oleoyl-CoA using human SCD1 enzyme using a previously published assay procedure with some modifications (Barbara R Talamo and Konrad Bloch, Analytical Biochemistry, 1969, 29, 300-304). This assay protocol is only illustrative and is not meant to limit to the scope of the present invention.
In this assay the microsomal SCD1 enzyme desaturates its substrate, Stearoyl CoA (purchased from American Radiochemicals Ltd.) which is tritiated at C9 and C10 positions. Test compounds were dissolved in dimethylsulfoxide and tested at 10 μM final concentration. Before substrate addition, the test compound or standard reference compound (conjugated linoleic acid at 100 μM final concentration) were pre-incubated in reaction buffer with the enzyme for 10 minutes at 30° C. with shaking. Reaction buffer was prepared as described in literature (Obukowicz et al. JPET, 1998, 287, 157-166) except that the MgCl2, ATP (purchased from Sigma) and CoA (purchased from Sigma) concentrations were changed to 4.9 mM, 7.2 mM and 0.54 mM respectively. The desaturation reaction was initiated by addition of 0.5 μCi of ^3H stearoyl CoA and incubated at 37° C. for 30 minutes with shaking. A control reaction was set without any test compound/reference inhibitor to capture maximum enzymatic activity in the assay. Inhibition of enzyme activity was calculated as a percent of this control reaction giving maximum catalysis and the results are given in Table 5.
Table 5: Tritiated water release assay at 10 μM substrate concentration *Conjugated Linoleic acid was used as a reference standard
For the molecule `Oc1ccc(C#Cc2ccc(N3CCC(O)(Cc4ccccc4F)CC3)nn2)cc1` [Example 63, 4-(2-Fluorobenzyl)-1-{6-[(4-hydroxyphenyl)ethynyl]pyridazin-3-yl}piperidin-4-ol], the inhibition (commonly the drop in the measured response relative to a control, in per cent) at 10 µM was found to be 94%. Take `Oc1ccc(C#Cc2ccc(N3CCC(O)(Cc4ccccc4)CC3)nn2)cc1` [Example 62, 4-Benzyl-1-{6-[(4-hydroxyphenyl)ethynyl]pyridazin-3-yl}piperidin-4-ol]: the inhibition at 10 µM was found to be 99%.

With `Oc1cccc(C#Cc2ccc(N3CCC(Oc4ccccc4C(F)(F)F)CC3)nn2)c1` [Example 91, 3-(2-{6-[4-(2-Trifluoromethylphenoxy)piperidino]-3-pyridazinyl}-1-ethynyl)phenol], the inhibition at 10 µM amounted to 100%. Next, `O=C(c1ccccc1C(F)(F)F)N1CCN(c2ncc(C#Cc3ccc4[nH]ccc4c3)cn2)CC1` [Example 50, 4-{5-[2-(1H-5-Indolyl)-1-ethynyl]-2-pyrimidinyl}piperazino-2-trifluoromethylphenyl-methanone]: 66%.

Turning to `Oc1ccc(C#Cc2ccc(N3CCC(O)(Cc4cc(Cl)ccc4Cl)CC3)nn2)cc1` [Example 65, 1-{6-[(4-Hydroxyphenyl)ethynyl]pyridazin-3-yl}-4-(2,5-dichlorobenzyl)piperidin-4-ol], the inhibition at 10 µM was 93%. On to `CC(=O)Oc1cccc(C#Cc2ccc(N3CCC(Oc4ccccc4C(F)(F)F)CC3)nn2)c1` [Example 90, 3-(2-{6-[4-(2-Trifluoromethylphenoxy)piperidino]-3-pyridazinyl}-1-ethynyl)phenyl acetate], for which the inhibition at 10 µM is 95%.

Regarding `CC(=O)Oc1cccc(C#Cc2ccc(N3CCC(Oc4ccccc4F)C3)nn2)c1` (stereo in doubt) [Example 68, 3-(2-{6-[(3S)-3-(2-Fluorophenoxy)azolan-1-yl]-3-pyridazinyl}-1-ethynyl)phenyl acetate], the inhibition at 10 µM was determined as 92%. Turning to `CC(=O)Oc1ccc(C#Cc2ccc(N3CCC(O)(Cc4ccccc4)CC3)nn2)cc1` [Example 61, 4-{[6-(4-Benzyl-4-hydroxypiperidin-1-yl)pyridazin-3-yl]ethynyl}phenyl acetate], the inhibition at 10 µM was determined as 97%.

Consider `CC(=O)Oc1cccc(C#Cc2ccc(N3CCN(CC4CCCCC4)CC3)nn2)c1` [Example 56], for which the inhibition at 10 µM turned out to be 92%.

As for `O=C(O)c1cc(C#Cc2ccc(N3CCN(C(=O)c4ccccc4C(F)(F)F)CC3)nc2)ccc1O` [Example 35, 2-Hydroxy-5-(2-{6-[4-(2-trifluoromethylbenzoyl)piperazino]-3-pyridyl}-1-ethynyl)-benzoic acid], the inhibition at 10 µM turned out to be 36%. In the case of `CC(C)(C)C#Cc1ccc(N2CCN(C(=O)c3ccccc3C(F)(F)F)CC2)nc1` [Example 18, 4-[5-(3,3-Dimethyl-1-butynyl)-2-pyridyl]piperazino-2-trifluoromethylphenylmethanone], the inhibition at 10 µM worked out at 26%.

Turning to `N#Cc1ccc(OCC#Cc2ccc(N3CCN(C(=O)c4ccccc4C(F)(F)F)CC3)nc2)nc1` [Example 12], the inhibition at 10 µM stood at 11%. Next, `Fc1ccc(OCC#Cc2ccc(N3CCN(c4ccc(C(F)(F)F)cn4)CC3)nc2)cc1` [Example 14, 1-{5-[3-(4-Fluorophenoxy)prop-1-yn-1-yl]-2-pyridyl}-4-(5-trifluoromethylpyridin-2-yl)piperazine]: 35%; `O=C(O)COc1cccc(C#Cc2ccc(N3CCN(C(=O)c4ccccc4C(F)(F)F)CC3)nc2)c1` [Example 27, 2-[3-(2-{6-[4-(2-Trifluoromethylbenzoyl)piperazino]-3-pyridyl}-1-ethynyl)phenoxy]-acetic acid]: 30%; `O=C(c1ccccc1C(F)(F)F)N1CCN(c2ccc(C#Cc3ccc(O)c(F)c3)cn2)CC1` [Example 24, 1-{5-[(3-Fluoro-4-hydroxyphenyl)ethynyl]-2-pyridyl}piperazin-4-yl-(2-trifluoromethylphenyl)methanone]: 79%.
